Data from patent US10308615B2, “Heterocyclic compounds as inhibitors of Vanin-1 enzyme” (Pfizer Inc., priority 2015, dated 2019).

How the values were obtained:
human vanin-1 [1] = target: T1, human vanin-1 (Homo sapiens (Human), UniProt O95497); test: Human Vanin-1 Enzyme Assay 1; type: biochemical; settings: 25 pM human vanin-1, 50 uM pantetheine 7-amino-4-trifluoromethylcoumarin, 30 min preincubation, 60 min
Method in brief: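 Purified His6/FLAG-tagged extracellular domain of human vanin-1, secreted from CHO cells, at 25 pM final in 50 mM Tris-HCl pH 8.0, 50 mM KCl, 0.005% Brij-35, 1.6 mM cysteamine, 0.5% DMSO. Inhibitor preincubated 30 min at room temperature; 50 uM pantetheine-AFC substrate, 60 min, fluorescence at 405/510 nm; 11-point four-fold dilution series.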

human vanin-1 [2] = target: T1, human vanin-1; test: Human Vanin-1 Enzyme Assay 2; type: biochemical; settings: 1 nM human vanin-1, 10 uM substrate, 45 min
Method in brief: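 Purified CHO-expressed His/FLAG-tagged human vanin-1 extracellular domain (1 nM) cleaved pantetheine-AMC-CF3 substrate (10 uM) in pH 8.0 Tris buffer with 1.5 mM cysteamine and 1% DMSO. Fluorescence (ex 405/em 505 nm) was read after 45 min, over an 11-point half-log inhibitor series.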

DSS-induced colitis = test: DSS (Dextran Sodium Sulfate)-induced colitis mouse model of IBD; type: in vivo, mice
Description: Induced Colitis Mouse Model Methods
Example 1 along with sulfasalazine was evaluated in DSS (Dextran Sodium Sulfate) —induced colitis mouse model of IBD. Experimental colitis was induced in healthy young female BALB/C mice by providing 4% DSS; molecular weight 36,000-50,000 (wt/vol) in drinking water ad-libitium for seven days followed by water alone for another seven days. At the commencement of the study, mice were between 7-8 weeks of age, weighing 18-20 g. All the mice were obtained from The Jackson Laboratory, Bar Harbor, Me. 04609 USA. The test articles Example 1 and vehicle were administered subcutaneously (sc) once a day beginning day −1 and continued till day 14. The positive control, Sulfasalazine was dosed orally (po) once a day beginning day 5 and continued till day 14 (Table 2). The body weights were recorded prior to dosing and daily thereafter for fourteen days. Clinical assessments of the mice were performed every other day beginning day 5. The clinical assessment includes body weight, stool consistency and the presence of blood in the stools and scored accordingly to the Table-3. At the end of the study mice were sacrificed using CO2 asphyxiation and colon from the colocecal junction to the anus was removed, washed and cleaned of all fecal matter using PBS, measured and weighed. The data are presented as the mean±standard error (SEM). Data were analyzed using two-way ANOVA using Bonferroni post-test. groups were considered significant at p<0.05.

human vanin-1 [3] = target: T1, human vanin-1; test: Human Vanin-1 Enzyme Assay 3; type: biochemical; settings: 2 nM human vanin-1, 10 uM substrate, 15 min
Method in brief: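 His/FLAG-tagged extracellular domain of human vanin-1 from CHO cells, used at 2 nM final, with 10 uM pantetheine-AFC substrate. Buffer: 50 mM Tris-HCl pH 8.0, 50 mM KCl, 0.005% Brij-35, 1.5 mM cysteamine, 1% DMSO. 15 min at room temperature; fluorescence read at 405/505 nm across an 11-point 2-fold dilution series.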

[4] = 50 mg/kg sc QD days -1-14, 4% DSS, female BALB/C mice

T1 sequence (O95497 22-491): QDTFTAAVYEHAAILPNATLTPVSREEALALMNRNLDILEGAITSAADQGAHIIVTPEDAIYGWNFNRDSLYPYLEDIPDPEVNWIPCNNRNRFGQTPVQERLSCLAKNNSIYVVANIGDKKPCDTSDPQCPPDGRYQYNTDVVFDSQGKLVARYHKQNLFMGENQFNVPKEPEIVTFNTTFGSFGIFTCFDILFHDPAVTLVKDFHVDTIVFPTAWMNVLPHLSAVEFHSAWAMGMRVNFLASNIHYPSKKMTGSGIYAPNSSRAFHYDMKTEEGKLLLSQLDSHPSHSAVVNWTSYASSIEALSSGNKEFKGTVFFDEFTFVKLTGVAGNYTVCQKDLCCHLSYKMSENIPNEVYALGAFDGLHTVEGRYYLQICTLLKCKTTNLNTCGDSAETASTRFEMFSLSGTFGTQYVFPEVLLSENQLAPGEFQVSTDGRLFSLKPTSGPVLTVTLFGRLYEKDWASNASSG

Row | SMILES | IC50 (human vanin-1 [1]) [nM] | IC50 (human vanin-1 [2]) [nM] | Disease Activity Index (DAI) (DSS-induced colitis; [4]) | colon length (DSS-induced colitis; [4]) | loss of body weight (DSS-induced colitis; [4]) | IC50 (human vanin-1 [3]) [nM] | improvement in the colitis (FIG. 1-3) (DSS-induced colitis; 100 mg/kg po QD days 5-14, positive control)
1 | N#Cc1cccc(C(=O)c2cnc(NC3(c4cncnc4)CC3)nc2)c1 [Example 1, 3-[(2-{[1-(pyrimidin-5-yl)cyclopropyl]amino}pyrimidin-5-yl)carbonyl]benzonitrile] | 4.1 | 7 | mark improvement | mark improvement | mark improvement | – | –
2 | N#Cc1cccc(C(=O)c2cnc(NCc3cnccn3)nc2)c1 [Example 117, 3-({2-[(pyrazin-2-ylmethyl)amino]pyrimidin-5-yl}carbonyl) benzonitrile] | 50.5 | 31.8 | – | – | – | 18.1 | –
3 | N#Cc1cccc(C(=O)c2cnc(NCc3cccnc3)nc2)c1 [Example 118, 3-({2-[(pyridin-3-ylmethyl)amino]pyrimidin-5-yl}carbonyl) benzonitrile] | 4 | 11.2 | – | – | – | 4.6 | –
4 | N#Cc1cccc(C(=O)c2cnc(NCc3cncnc3)nc2)c1 [Example 120, 3-({2-[(pyrimidin-5-ylmethyl)amino]pyrimidin-5-yl}carbonyl) benzonitrile] | 36 | 37.8 | – | – | – | 16.6 | –
5 | CC(C)(Nc1ncc(C(=O)c2cccc(C(F)(F)F)c2)cn1)c1ccccc1 [Example 121, {2-[(2-phenylpropan-2-yl)amino]pyrimidin-5-yl}[3-(trifluoromethyl)phenyl]methanone] | 32.3 | 50.4 | – | – | – | 9.1 | –
6 | CC(C)(Nc1ncc(C(=O)c2ccc3c(c2)OCCO3)cn1)c1ccccc1 [Example 124, 2,3-dihydro-1,4-benzodioxin-6-yl{2-[(2-phenylpropan-2-yl)amino]pyrimidin-5-yl}methanone] | 526 | 798 | – | – | – | 223 | –
7 | CS(=O)(=O)c1cccc(C(=O)c2cnc(NCc3ccc(C#N)cc3)nc2)c1 [Example 126, 4-[({5-[3-(methylsulfonyl)benzoyl]pyrimidin-2-yl}amino)methyl] benzonitrile] | 28.2 | 44 | – | – | – | 40.6 | –
8 | O=C(c1cnc(NCc2cccnc2)nc1)c1cc(F)cc(C(F)(F)F)c1 [Example 128, [3-fluoro-5-(trifluoromethyl)phenyl]{2-[(pyridin-3-ylmethyl)amino]pyrimidin-5-yl}methanone] | 38.1 | 38.9 | – | – | – | 43.5 | –
9 | O=C(O)c1cc(/N=N/c2ccc(S(=O)(=O)Nc3ccccn3)cc2)ccc1O [Sulfasalazine, reference compound] | – | – | – | – | – | – | improvement in the colitis
